The values that follow come from the supplement of paper PMC10307832.

Assay in all cases: relative viability (nuclei count vs DMSO), 5 days (fraction); higher = more cells survive
Compound in the test “Carfilzomib + Navitoclax”: CC(C)C[C@H](NC(=O)[C@H](CCc1ccccc1)NC(=O)CN1CCOCC1)C(=O)N[C@@H](Cc1ccccc1)C(=O)N[C@@H](CC(C)C)C(=O)[C@@]1(C)CO1 [Carfilzomib] + CC1(C)CCC(c2ccc(Cl)cc2)=C(CN2CCN(c3ccc(C(=O)NS(=O)(=O)c4ccc(N[C@H](CCN5CCOCC5)CSc5ccccc5)c(S(=O)(=O)C(F)(F)F)c4)cc3)CC2)C1 [Navitoclax] (partner 0.5 µM)
In a few lines:
(§1)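 For relative viability, nuclei counts in treated wells were divided by those in vehicle wells. Lung cancer cell lines had been pin-tool dosed in 1536-well plates the day after seeding and cultured for 5 days, then fixed and stained in one step (final 0.05% Triton X-100, 1% formaldehyde, 1 ug/ml Hoechst) and imaged at 4×. Doses were one drug alone or a fixed anchor-drug dose plus five library-drug doses (not always all listed) in √10 steps, and values are duplicate-plate medians.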

Compound in the test “Crizotinib + Pictilisib”: C[C@@H](Oc1cc(-c2cnn(C3CCNCC3)c2)cnc1N)c1c(Cl)ccc(F)c1Cl [Crizotinib] + CS(=O)(=O)N1CCN(Cc2cc3nc(-c4cccc5[nH]ncc45)nc(N4CCOCC4)c3s2)CC1 [Pictilisib] (partner 1 µM)
Summed up: as §1

Compound in the test “Crizotinib + Vorinostat”: C[C@@H](Oc1cc(-c2cnn(C3CCNCC3)c2)cnc1N)c1c(Cl)ccc(F)c1Cl [Crizotinib] + O=C(CCCCCCC(=O)Nc1ccccc1)NO [Vorinostat] (partner 1 µM)
In a few lines:
as §1

Compound in the test “Olaparib + Luminespib”: O=C(c1cc(Cc2n[nH]c(=O)c3ccccc23)ccc1F)N1CCN(C(=O)C2CC2)CC1 [Olaparib] + CCNC(=O)c1noc(-c2cc(C(C)C)c(O)cc2O)c1-c1ccc(CN2CCOCC2)cc1 [Luminespib] (partner 0.01 µM)
In a few lines: as §1

SW 1573: the relative viability in the test with Carfilzomib + Navitoclax (first compound 0.001 µM) came to 1.06; in the test with Carfilzomib + Navitoclax (first compound 0.003162 µM), 1.11; with Carfilzomib + Navitoclax (first compound 0.01 µM), 0.8; with Carfilzomib + Navitoclax (first compound 0.03162 µM) it was 0.0728; with Carfilzomib + Navitoclax (first compound 0.1 µM), 0.0538; in the test with Crizotinib + Pictilisib (first compound 0.01 µM), 0.424. Further, the relative viability with Crizotinib + Pictilisib (first compound 0.03162 µM) was determined as 0.525; with Crizotinib + Pictilisib (first compound 0.1 µM) it was 0.558; in the test with Crizotinib + Pictilisib (first compound 0.3162 µM), 0.459; with Crizotinib + Pictilisib (first compound 1 µM) it was 0.52; with Crizotinib + Vorinostat (first compound 0.01 µM), 0.824; in the test with Crizotinib + Vorinostat (first compound 0.03162 µM), 0.947. In addition, the relative viability with Crizotinib + Vorinostat (first compound 0.1 µM) is 0.729; with Crizotinib + Vorinostat (first compound 0.3162 µM), 0.55; with Crizotinib + Vorinostat (first compound 1 µM) it was 0.671; with Olaparib + Luminespib (first compound 0.08 µM), 0.376; with Olaparib + Luminespib (first compound 0.253 µM), 0.221; with Olaparib + Luminespib (first compound 2.53 µM), 0.204. Moreover, in the test with Olaparib + Luminespib (first compound 8 µM), the relative viability came out at 0.158.
As to NCI-H2087, the relative viability with Carfilzomib + Navitoclax (first compound 0.001 µM) is 1.07; in the test with Carfilzomib + Navitoclax (first compound 0.003162 µM) it was 0.97; with Carfilzomib + Navitoclax (first compound 0.01 µM) it was 0.721; with Carfilzomib + Navitoclax (first compound 0.03162 µM), 0.115; in the test with Carfilzomib + Navitoclax (first compound 0.1 µM) it was 0.0804; in the test with Crizotinib + Pictilisib (first compound 0.01 µM) it was 0.693. Besides, the relative viability with Crizotinib + Pictilisib (first compound 0.03162 µM) worked out at 0.909; with Crizotinib + Pictilisib (first compound 0.1 µM), 0.953; in the test with Crizotinib + Pictilisib (first compound 0.3162 µM) it was 0.42; with Crizotinib + Pictilisib (first compound 1 µM), 0.943; with Crizotinib + Vorinostat (first compound 0.01 µM) it was 0.679; with Crizotinib + Vorinostat (first compound 0.03162 µM), 0.689. The relative viability was 0.766 with Crizotinib + Vorinostat (first compound 0.1 µM); 0.94 with Crizotinib + Vorinostat (first compound 0.3162 µM); 0.731 with Crizotinib + Vorinostat (first compound 1 µM); 0.162 with Olaparib + Luminespib (first compound 0.08 µM); 0.159 in the test with Olaparib + Luminespib (first compound 0.253 µM); 0.199 in the test with Olaparib + Luminespib (first compound 2.53 µM). Also, in the test with Olaparib + Luminespib (first compound 8 µM), the relative viability turned out to be 0.154.
With BEN, the relative viability was 0.0574 with Carfilzomib + Navitoclax (first compound 0.001 µM); 0.0653 with Carfilzomib + Navitoclax (first compound 0.003162 µM); 0.0797 with Carfilzomib + Navitoclax (first compound 0.01 µM); 0.0533 in the test with Carfilzomib + Navitoclax (first compound 0.03162 µM); 0.047 with Carfilzomib + Navitoclax (first compound 0.1 µM); 0.608 with Crizotinib + Pictilisib (first compound 0.01 µM). The relative viability with Crizotinib + Pictilisib (first compound 0.03162 µM) came to 0.492; with Crizotinib + Pictilisib (first compound 0.1 µM), 0.52; with Crizotinib + Pictilisib (first compound 0.3162 µM), 0.581; with Crizotinib + Pictilisib (first compound 1 µM) it was 0.576; with Crizotinib + Vorinostat (first compound 0.01 µM), 0.553; in the test with Crizotinib + Vorinostat (first compound 0.03162 µM) it was 0.55. The relative viability with Crizotinib + Vorinostat (first compound 0.1 µM) was 0.628; in the test with Crizotinib + Vorinostat (first compound 0.3162 µM), 0.506; in the test with Crizotinib + Vorinostat (first compound 1 µM), 0.573; with Olaparib + Luminespib (first compound 0.253 µM), 0.308; with Olaparib + Luminespib (first compound 2.53 µM), 0.283; in the test with Olaparib + Luminespib (first compound 8 µM), 0.31.
Turning to NCI-H1650, the relative viability with Carfilzomib + Navitoclax (first compound 0.003162 µM) was 1.09; with Carfilzomib + Navitoclax (first compound 0.01 µM), 1.24; with Carfilzomib + Navitoclax (first compound 0.03162 µM) it was 0.1; with Carfilzomib + Navitoclax (first compound 0.1 µM), 0.119; with Crizotinib + Pictilisib (first compound 0.01 µM), 0.516; in the test with Crizotinib + Pictilisib (first compound 0.03162 µM) it was 0.584. Besides, the relative viability with Crizotinib + Pictilisib (first compound 0.1 µM) was determined as 0.573; with Crizotinib + Pictilisib (first compound 0.3162 µM), 0.535; with Crizotinib + Pictilisib (first compound 1 µM) it was 0.559; in the test with Crizotinib + Vorinostat (first compound 0.01 µM), 0.471; in the test with Crizotinib + Vorinostat (first compound 0.03162 µM) it was 0.594; in the test with Crizotinib + Vorinostat (first compound 0.1 µM), 0.527. For the same cell line, the relative viability in the test with Crizotinib + Vorinostat (first compound 0.3162 µM) is 0.68; with Crizotinib + Vorinostat (first compound 1 µM), 0.619; with Olaparib + Luminespib (first compound 0.08 µM) it was 0.245; with Olaparib + Luminespib (first compound 0.253 µM), 0.188; with Olaparib + Luminespib (first compound 2.53 µM) it was 0.2; in the test with Olaparib + Luminespib (first compound 8 µM), 0.195.
Take A-427: the relative viability with Carfilzomib + Navitoclax (first compound 0.001 µM) was found to be 0.954; with Carfilzomib + Navitoclax (first compound 0.003162 µM), 1.01; with Carfilzomib + Navitoclax (first compound 0.01 µM), 1.04; with Carfilzomib + Navitoclax (first compound 0.03162 µM), 0.644; with Carfilzomib + Navitoclax (first compound 0.1 µM), 0.113; with Crizotinib + Pictilisib (first compound 0.01 µM), 0.529. Moreover, the relative viability worked out at 0.655 with Crizotinib + Pictilisib (first compound 0.03162 µM); 0.668 in the test with Crizotinib + Pictilisib (first compound 0.1 µM); 0.675 with Crizotinib + Pictilisib (first compound 1 µM); 0.836 with Crizotinib + Vorinostat (first compound 0.01 µM); 0.871 with Crizotinib + Vorinostat (first compound 0.03162 µM); 0.876 with Crizotinib + Vorinostat (first compound 0.1 µM). The relative viability with Crizotinib + Vorinostat (first compound 1 µM) came out at 0.899; in the test with Olaparib + Luminespib (first compound 0.08 µM) it was 1.02; with Olaparib + Luminespib (first compound 0.253 µM), 0.856; with Olaparib + Luminespib (first compound 2.53 µM), 0.859; with Olaparib + Luminespib (first compound 8 µM), 0.898.
Turning to CAL-12T, the relative viability is 0.996 with Carfilzomib + Navitoclax (first compound 0.003162 µM); 1.22 with Carfilzomib + Navitoclax (first compound 0.01 µM); 0.822 in the test with Carfilzomib + Navitoclax (first compound 0.03162 µM); 0.104 with Carfilzomib + Navitoclax (first compound 0.1 µM); 0.345 in the test with Crizotinib + Pictilisib (first compound 0.01 µM); 0.472 with Crizotinib + Pictilisib (first compound 0.03162 µM). In addition, the relative viability with Crizotinib + Pictilisib (first compound 0.1 µM) turned out to be 0.466; with Crizotinib + Pictilisib (first compound 1 µM), 0.355; with Crizotinib + Vorinostat (first compound 0.01 µM) it was 0.855; in the test with Crizotinib + Vorinostat (first compound 0.03162 µM), 0.788; with Crizotinib + Vorinostat (first compound 0.1 µM) it was 0.647; with Crizotinib + Vorinostat (first compound 0.3162 µM), 0.713. Also, the relative viability stood at 0.725 with Crizotinib + Vorinostat (first compound 1 µM); 0.604 with Olaparib + Luminespib (first compound 0.08 µM); 0.376 with Olaparib + Luminespib (first compound 0.253 µM); 0.365 with Olaparib + Luminespib (first compound 2.53 µM); 0.355 with Olaparib + Luminespib (first compound 8 µM).
For NCI-H1563, the relative viability with Crizotinib + Pictilisib (first compound 0.01 µM) came to 0.527; in the test with Crizotinib + Pictilisib (first compound 0.03162 µM) it was 0.594; in the test with Crizotinib + Pictilisib (first compound 0.1 µM), 0.628; with Crizotinib + Pictilisib (first compound 0.3162 µM) it was 0.555; with Crizotinib + Pictilisib (first compound 1 µM) it was 0.652; with Olaparib + Luminespib (first compound 0.08 µM), 1.21. For the same cell line, the relative viability with Olaparib + Luminespib (first compound 0.253 µM) was determined as 0.475; with Olaparib + Luminespib (first compound 2.53 µM), 0.538; with Olaparib + Luminespib (first compound 8 µM) it was 0.481.
In the case of Calu-6, the relative viability in the test with Carfilzomib + Navitoclax (first compound 0.001 µM) was determined as 0.885; in the test with Carfilzomib + Navitoclax (first compound 0.003162 µM) it was 0.997; with Carfilzomib + Navitoclax (first compound 0.01 µM) it was 0.561; with Carfilzomib + Navitoclax (first compound 0.03162 µM), 0.0829; in the test with Carfilzomib + Navitoclax (first compound 0.1 µM), 0.0768; with Crizotinib + Pictilisib (first compound 0.01 µM), 0.881. Further, the relative viability amounted to 0.942 with Crizotinib + Pictilisib (first compound 0.03162 µM), 0.937 with Crizotinib + Pictilisib (first compound 0.3162 µM) and 0.865 in the test with Crizotinib + Pictilisib (first compound 1 µM).
